Assay results from patent publication US12247033B2, “Triazole-substituted imidazo[1,2-a]pyrimidines as cGAS inhibitors” (GlaxoSmithKline Intellectual Property Development Limited, priority 2022, dated 2025).

molecular target: human CGAS (157-522) (Homo sapiens, UniProt Q8N884); assay: biochemical
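Further: biochemical enzyme reaction, 2′3′-cGAMP product measured by RapidFire mass spectrometry (MRM) normalised to c-di-UMP internal standard, inhibition of product formation relative to high and low control wells.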

Sequence of human CGAS (157-522) (Q8N884 157-522): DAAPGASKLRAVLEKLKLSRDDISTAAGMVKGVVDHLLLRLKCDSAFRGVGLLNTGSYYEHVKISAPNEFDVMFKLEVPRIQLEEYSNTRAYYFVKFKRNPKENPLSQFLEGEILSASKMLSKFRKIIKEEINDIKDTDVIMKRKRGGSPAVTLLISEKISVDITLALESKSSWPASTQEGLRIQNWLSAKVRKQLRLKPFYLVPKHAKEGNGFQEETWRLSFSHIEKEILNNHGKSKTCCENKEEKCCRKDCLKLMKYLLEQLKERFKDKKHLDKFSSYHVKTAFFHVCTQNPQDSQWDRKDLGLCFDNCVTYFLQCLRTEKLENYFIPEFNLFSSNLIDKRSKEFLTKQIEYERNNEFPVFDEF

Row | SMILES | IC50
1 | FC(F)(F)c1n[nH]c(-c2nc3nc(N4CCOCC4)ccn3c2-c2c[nH]cn2)n1 [Example 42, 4-[3-(1H-imidazol-4-yl)-2-[3-(trifluoromethyl)-1H-1,2,4-triazol-5-yl]imidazo[1,2-a]pyrimidin-7-yl]morpholine] | 25.1 nM
2 | OC1CCN(c2ccn3c(-c4cnc[nH]4)c(-c4nc(C(F)(F)F)n[nH]4)nc3n2)C1 (centres unmarked) [Example 53, 1-[3-(1H-imidazol-5-yl)-2-[3-(trifluoromethyl)-1H-1,2,4-triazol-5-yl]imidazo[1,2-a]pyrimidin-7-yl]pyrrolidin-3-ol] | 15.8 nM
3 | COC(=O)c1ccn2c(-c3c[nH]cn3)c(-c3nc(Br)n[nH]3)nc2n1 [Example 36, methyl 2-(3-bromo-1H-1,2,4-triazol-5-yl)-3-(1H-imidazol-4-yl)imidazo[1,2-a]pyrimidine-7-carboxylate] | 3.16 nM
4 | CCc1nc2nc(-c3nc(C(F)(F)F)n[nH]3)c(-c3cnc[nH]3)n2cc1C [Example 47, 5-[7-ethyl-3-(1H-imidazol-5-yl)-6-methylimidazo[1,2-a]pyrimidin-2-yl]-3-(trifluoromethyl)-1H-1,2,4-triazole] | 1.58 nM
5 | Cc1cn2c(-c3cnc[nH]3)c(-c3nc(C(F)(F)F)n[nH]3)nc2nc1C [Example 52, 5-[3-(1H-imidazol-5-yl)-6,7-dimethylimidazo[1,2-a]pyrimidin-2-yl]-3-(trifluoromethyl)-1H-1,2,4-triazole] | 5.01 nM
6 | COc1cn2c(-c3c[nH]cn3)c(-c3nc(C(F)(F)F)n[nH]3)nc2nc1C [Example 51, 5-[3-(1H-imidazol-4-yl)-6-methoxy-7-methylimidazo[1,2-a]pyrimidin-2-yl]-3-(trifluoromethyl)-1H-1,2,4-triazole] | 10 nM
7 | CN(C)c1ccn2c(-c3cnc[nH]3)c(-c3nc(C(F)(F)F)n[nH]3)nc2n1 [Example 43] | 15.8 nM

Other lines, results leading:

Row | IC50 | SMILES
8 | 7.94 nM | Cc1cn(C)c(COCc2cnc3nc(-c4nc(C(F)(F)F)n[nH]4)c(-c4c[nH]cn4)n3c2)n1 [Example 158, 5-(6-{[(1,4-dimethyl-1H-imidazol-2-yl)methoxy]methyl}-3-(1H-imidazol-4-yl)imidazo[1,2-a]pyrimidin-2-yl)-3-(trifluoromethyl)-1H-1,2,4-triazole]
9 | 6.31 nM | Cc1cnc2nc(-c3nc(C(F)(F)F)n[nH]3)c(-c3cnc[nH]3)n2c1 [Example 54, 5-[3-(1H-imidazol-5-yl)-6-methylimidazo[1,2-a]pyrimidin-2-yl]-3-(trifluoromethyl)-1H-1,2,4-triazole]
10 | 3.16 nM | O=C(O)c1ccn2c(-c3c[nH]cn3)c(-c3nc(C(F)(F)F)n[nH]3)nc2n1 [Example 102, 3-(1H-imidazol-4-yl)-2-[3-(trifluoromethyl)-1H-1,2,4-triazol-5-yl]imidazo[1,2-a]pyrimidine-7-carboxylic acid]
11 | 794 nM | Cc1n[nH]c(-c2nc3nc(C(F)(F)F)ccn3c2-c2cnc[nH]2)n1 [Example 98, 5-[3-(1H-imidazol-5-yl)-7-(trifluoromethyl)imidazo[1,2-a]pyrimidin-2-yl]-3-methyl-1H-1,2,4-triazole]
12 | 7.94 nM | CC(O)C(O)COCc1cnc2nc(-c3nc(C(F)(F)F)n[nH]3)c(-c3cnc[nH]3)n2c1 (centres unmarked) [Example 112, 1-{[3-(1H-imidazol-5-yl)-2-[3-(trifluoromethyl)-1H-1,2,4-triazol-5-yl]imidazo[1,2-a]pyrimidin-6-yl]methoxy}butane-2,3-diol]
13 | 20 nM | OC1CCCN(c2ccn3c(-c4cnc[nH]4)c(-c4nc(C(F)(F)F)n[nH]4)nc3n2)C1 (centres unmarked) [Example 56, 1-[3-(1H-imidazol-5-yl)-2-[3-(trifluoromethyl)-1H-1,2,4-triazol-5-yl]imidazo[1,2-a]pyrimidin-7-yl]piperidin-3-ol]
14 | 1580 nM | CC(C)(C)CNC(=O)c1cnc2nc(-c3nc(C(F)(F)F)n[nH]3)c(-c3cnc[nH]3)n2c1 [Example 94, N-(2,2-dimethylpropyl)-3-(1H-imidazol-5-yl)-2-[3-(trifluoromethyl)-1H-1,2,4-triazol-5-yl]imidazo[1,2-a]pyrimidine-6-carboxamide]
